Assay results from patent US8871719B2, “Modified MELK peptides and vaccines containing the same” (OncoTherapy Science, Inc., priority 2010, dated 2014).
Entries after “also recorded” stand apart in the source; their conditions may differ.

What was measured:
[1] = system: peptide-pulsed A24LCL cells; assay: In vitro CTL induction, IFN-gamma ELISPOT assay; type: cell-based, human; details: for IFN-gamma production of CTLs (ELISPOT): target cells pulsed with cognate peptide vs not pulsed; for CTL inducibility / CTL activity: in vitro stimulation of T-cells by peptide-loaded DCs; for Immunogenicity compared to MELK-A24-9-87_WT: CTL induction from donors B and C
Source text: Monocyte-derived dendritic cells (DCs) were used as antigen-presenting cells (APCs) to induce cytotoxic T lymphocyte (CTL) responses against peptides presented on HLA. DCs were generated in vitro as described elsewhere (Nakahara S et al., Cancer Res 2003 Jul. 15, 63(14): 4112-8). Specifically, peripheral blood mononuclear cells (PBMCs) isolated from three healthy donors termed donors A, B and C (HLA-A*2402 positive) by Ficoll-Plaque (Pharmacia) solution were separated by adherence to a plastic tissue culture dish (Becton Dickinson) so as to enrich them as the monocyte fraction. The monocyte-enriched population was cultured in the presence of 1,000 U/ml of granulocyte-macrophage colony-stimulating factor (GM-CSF) (R&D System) and 1,000 U/ml of interleukin (IL)-4 (R&D System) in AIM-V Medium (Invitrogen) containing 2% heat-inactivated autologous serum (AS). After 7 days of culture, the cytokine-induced DCs were pulsed with 20 micro-g/ml of each of the synthesized peptides in the presence of 3 micro-g/ml of beta2-microglobulin for 3 hrs at 37 degrees C. in AIM-V Medium. The generated cells appeared to express DC-associated molecules, such as CD80, CD83, CD86 and HLA class II, on their cell surfaces (data not shown). These peptide-pulsed DCs were then inactivated by X-irradiation (20 Gy) and mixed at a 1:20 ratio with autologous CD8+ T cells, obtained by positive selection with CD8 Positive Isolation Kit (Dynal). These cultures were set up in 48-well plates (Corning); each well contained 1.5×10^4 peptide-pulsed DCs, 3×10^5 CD8+ T cells and 10 ng/ml of IL-7 (R&D System) in 0.5 ml of AIM-V/2% AS medium. 3 days later, these cultures were supplemented with IL-2 (CHIRON) to a final concentration of 20 IU/ml. On days 7 and 14, the T cells were further stimulated with the autologous peptide-pulsed DCs. The DCs were prepared each time by the same way described above. CTLs were tested against peptide-pulsed A24LCL cells after the 3rd round of peptide stimulation on day 21 (Tanaka H et al., Br J Cancer 2001 Jan. 5, 84(1): 94-9; Umano Y et al., Br J Cancer 2001 Apr. 20, 84(8): 1052-7; Uchida N et al., Clin Cancer Res 2004 Dec. 15, 10(24): 8577-86; Suda T et al., Cancer Sci 2006 May, 97(5): 411-9; Watanabe T et al., Cancer Sci 2005 August, 96(8): 498-506).
(§1) Specifically, peptide-pulsed A24LCL (1×10^4/well) and tumor cell lines (5×10^4/well) were prepared as stimulator cells. Cultured cells in 48 wells, CTL lines and clones were used as responder cells. IFN-gamma ELISPOT assay and IFN-gamma ELISA assay were performed under manufacture procedure.

[2] = system: peptide-pulsed A24LCL cells; assay: CTL clones, IFN-gamma ELISA assay; type: cell-based, human; details: for IFN-gamma production of CTL clones (ELISA): donor B
Procedure: The dilutions were made to have 0.3, 1, and 3 CTLs/well in 96 round-bottomed micro titer plate (Nalge Nunc International). CTLs were cultured with 1×10^4 cells/well of 2 kinds of human B-lymphoblastoid cell lines, 30 ng/ml of anti-CD3 antibody, and 125 U/ml of IL-2 in a total of […] of AIM-V Medium containing 5% AS. 50 micro-1/well of IL-2 were added to the medium 10 days later so to reach a final concentration of 125 U/ml IL-2. CTL activity was tested on the 14th day, and CTL clones were expanded using the same method as described above (Uchida N et al., Clin Cancer Res 2004 Dec. 15, 10(24): 8577-86; Suda T et al., Cancer Sci 2006 May, 97(5): 411-9; Watanabe T et al., Cancer Sci 2005 August, 96(8): 498-506).
as §1

[3] = system: peptide-pulsed A24LCL cells; assay: CTL lines, IFN-gamma ELISA assay; type: cell-based, human
Procedure: CTLs were expanded in culture using the method similar to the one described by Riddell et al. (Walter E A et al., N Engl J Med 1995 Oct. 19, 333(16): 1038-44; Riddell S R et al., Nat Med 1996 Feb. 2(2): 216-23). A total of 5×10^4 CTLs were suspended in 25 ml of AIM-V/5% AS medium with 2 kinds of human B-lymphoblastoid cell lines, inactivated by MMC, in the presence of 40 ng/ml of anti-CD3 monoclonal antibody (Pharmingen). One day after initiating the cultures, 120 IU/ml of IL-2 were added to the cultures. The cultures were fed with fresh AIM-V/5% AS medium containing 30 IU/ml of IL-2 on days 5, 8 and 11 (Tanaka H et al., Br J Cancer 2001 Jan. 5, 84(1): 94-9; Umano Y et al., Br J Cancer 2001 Apr. 20, 84(8): 1052-7; Uchida N et al., Clin Cancer Res 2004 Dec. 15, 10(24): 8577-86; Suda T et al., Cancer Sci 2006 May, 97(5): 411-9; Watanabe T et al., Cancer Sci 2005 August, 96(8): 498-506).
as §1

[4] = system: COS7 cells transfected with MELK and HLA-A*2402; assay: Specific CTL activity against transfected COS7 cells; type: cell-based
Procedure: as §1
The cDNA encoding an open reading frame of target gene or HLA-A*2402 was amplified by PCR. The PCR-amplified products were cloned into pCAGGS vector. The plasmids were transfected into COST, which is the target genes and HLA-A24 negative cell line, using lipofectamine 2000 (Invitrogen) according to the manufacturer's recommended procedures. After 2 days from transfection, the transfected cells were harvested with versene (Invitrogen) and used as stimulator cells (5×10^4 cells/well) for CTL activity assay.

[5] = system: tumor cell lines MDA-MB-4355 (MELK+, A24+) and KLM-1 (MELK+, A24+); assay: Specific CTL activity against tumor cell lines expressing MELK and HLA-A*2402; type: cell-based, human; details: for IFN-gamma production / CTL activity of CTL clone against KLM-1: KLM-1 (MELK+, A24+) compared with KP-1N
Procedure: (§2) TISI, human leukocyte antigen (HLA)-A*2402 positive B-lymphoblastoid cell line, was purchased from the IHWG Cell and Gene Bank (Seattle, Wash.). COS7, MDA-MB-435S and T47D were purchased from ATCC. KLM-1 and KP-1N were purchased from RIKEN cell bank and JCRB cell bank, respectively.
as §1

[6] = system: T47D (MELK+, A24−) and KP-1N (MELK+, A24−); assay: Specific CTL activity against tumor cell lines expressing MELK but not HLA-A*2402; type: cell-based, human; details: T47D and KP-1N (MELK+, A24−)
Procedure: as §2, §1

[7] = donor A, target cells pulsed with cognate peptide vs without peptide pulse
[8] = donor C, target cells pulsed with MELK-A24-9-87_WT vs irrelevant HIV peptide
[9] = target cells pulsed with MELK-A24-9-87_WT vs irrelevant HIV peptide
[10] = donor B, target cells pulsed with MELK-A24-9-87_WT vs irrelevant HIV peptide

Sequence | IFN-gamma production of CTLs (ELISPOT) ([1]; donor B) | CTL inducibility / CTL activity [1] | IFN-gamma production of CTL lines (ELISA) [3, 7] | IFN-gamma production of CTL clones (ELISA) [2, 9] | Immunogenicity compared to MELK-A24-9-87_WT [1] | IFN-gamma production of CTL lines (ELISA) [3, 10] | further results
DYIISQDRL [SEQ ID NO: 2] | – | – | – | – | – | – | IFN-gamma production of CTLs (ELISPOT) ([1]; donor A, listed as MELK-A24-9-96): typical negative data; also recorded: specific IFN-gamma production was not shown
EYCPGGELF [MELK-A24-9-87_WT] | no specific IFN-gamma production was detected; also recorded: peptide specific IFN-gamma production was not detected | significant and specific CTL activity | potent IFN-gamma production | – | – | – | IFN-gamma production of CTL clone (ELISA) ([2]; donor A, target cells pulsed with cognate peptide vs not pulsed): potent IFN-gamma production; IFN-gamma production of CTLs (ELISPOT) ([1]; donor A): potent IFN-gamma production; also recorded: potential IFN-gamma productive ability; IFN-gamma production of CTL lines (ELISA) [3, 8]: no IFN-gamma production; also recorded: CTL line was not established; Specific CTL activity of CTL clone against controls ([4]; COS7 cells expressing either HLA-A*2402 or MELK): no significant specific CTL activity; Specific CTL activity of CTL clone ([4]; COS7 cells transfected with both MELK and HLA-A*2402): potent CTL activity; also recorded: specific CTL activity
EYCPGGNLF [MELK-A24-9-87_7N] | potent IFN-gamma production; also recorded: potential IFN-gamma productive ability | significant and specific CTL activity; also recorded: CTLs were successfully established | – | potent IFN-gamma production | superior immunogenicity | potent IFN-gamma production | IFN-gamma production of CTL clone (ELISA) [2, 8]: potent IFN-gamma production; IFN-gamma production of CTLs (ELISPOT) ([1]; donor C): potent IFN-gamma production; also recorded: potential IFN-gamma productive ability; CTL inducibility / CTL activity ([1]; listed as 44): particularly strong CTL inducibility; IFN-gamma production of CTL lines (ELISA) [3, 8]: peptide specific IFN-gamma production; also recorded: IFN-gamma production was detected; IFN-gamma production / CTL activity of CTL clone against KLM-1 [5]: specific CTL activity; CTL activity of CTL line against tumor cell lines ([5]; MDA-MB-4355 and KLM-1 (MELK+, A24+)): potent CTL activity; also recorded: specific CTL activity; CTL activity of CTL line against tumor cell lines [6]: without showing CTL activity
EYMPGGELF [MELK-A24-9-87_3M] | potent IFN-gamma production; also recorded: potential IFN-gamma productive ability | significant and specific CTL activity; also recorded: CTLs were successfully established | – | potent IFN-gamma production | superior immunogenicity | potent IFN-gamma production | CTL inducibility / CTL activity ([1]; listed as 41): particularly strong CTL inducibility
KYCPGGELF [MELK-A24-9-87_1K] | potent IFN-gamma production; also recorded: potential IFN-gamma productive ability | significant and specific CTL activity; also recorded: CTLs were successfully established | – | potent IFN-gamma production | superior immunogenicity | potent IFN-gamma production | CTL inducibility / CTL activity ([1]; listed as 35): particularly strong CTL inducibility
LYVLMCGFL [SEQ ID NO: 1] | – | – | potent IFN-gamma production | – | – | – | IFN-gamma production of CTL clone (ELISA) ([2]; donor A, target cells pulsed with cognate peptide vs not pulsed, listed as MELK-A24-9-199): potent IFN-gamma production; also recorded: had the ability to recognize the peptide-pulsed target cells; IFN-gamma production of CTLs (ELISPOT) ([1]; donor A, listed as MELK-A24-9-199): potent IFN-gamma production; also recorded: potential IFN-gamma productive ability; IFN-gamma production / CTL activity of CTL clone against KLM-1 [5]: no IFN-gamma production
TANKIFMVL [SEQ ID NO: 21] | – | – | – | – | – | – | IFN-gamma production of CTLs (ELISPOT) ([1]; donor A, listed as MELK-A24-9-78): potent IFN-gamma production; also recorded: potential IFN-gamma productive ability
VYKRLVEDIL [SEQ ID NO: 23] | – | significant and specific CTL activity | potent IFN-gamma production | – | – | – | IFN-gamma production of CTLs (ELISPOT) ([1]; donor A, listed as MELK-A24-10-637): potent IFN-gamma production; also recorded: potential IFN-gamma productive ability
